According to patent US20040171680A1, “Treating Syndrome X with substituted tetralins and indanes” (priority 2002, published 2004):
Read-outs that look alike come from different tables or passages of the source.

What was measured:
PPARα = target: T1, PPARα (Rattus norvegicus, UniProt P37230); assay: HD bDNA Assay (HD gene induction); type: cell-based
T1 construct: H4IIE rat hepatoma cell line was obtained from ATCC; host or cells: H4IIE rat hepatoma cells
T1 sequence (P37230 1-468): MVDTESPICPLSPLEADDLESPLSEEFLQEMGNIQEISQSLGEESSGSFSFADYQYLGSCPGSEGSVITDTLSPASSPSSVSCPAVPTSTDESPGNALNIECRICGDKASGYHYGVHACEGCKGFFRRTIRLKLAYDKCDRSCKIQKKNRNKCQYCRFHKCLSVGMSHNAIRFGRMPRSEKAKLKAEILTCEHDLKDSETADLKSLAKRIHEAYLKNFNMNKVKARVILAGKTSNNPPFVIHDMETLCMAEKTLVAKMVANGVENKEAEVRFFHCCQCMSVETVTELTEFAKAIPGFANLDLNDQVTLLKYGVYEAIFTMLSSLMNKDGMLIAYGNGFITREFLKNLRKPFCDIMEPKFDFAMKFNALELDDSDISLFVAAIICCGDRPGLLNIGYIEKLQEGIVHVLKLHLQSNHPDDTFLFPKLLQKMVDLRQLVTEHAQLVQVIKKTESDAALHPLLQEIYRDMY
Experimental: HD bDNA Assay H4IIE rat hepatoma cell line was obtained from ATCC. Cells were cultured in 175 cm^2 tissue culture flask or seeded in 96-well plate with (high serum content, 10% fetal bovine serum and 10% calf serum) culture medium and maintained at 37° C. and 5% CO2 throughout study. Twenty-four hours after the initial seeding of the 96-well plate by hand (approximate 100,000/well), the HD gene induction assay was initiated. Media was removed and replaced with 100 ul of low serum culture media (5% charcoal/dextran treated calf serum) containing vehicle (DMSO) or test compounds or standard. Cells returned to incubator for 24 hours culture. At the termination of the challenge, 50 ul lysis buffer with HD gene specific CE, LE, BL probes was added directly into each well to initiate the bDNA HD mRNA assay. The branched DNA assay was performed according to the manufacturer's protocol (Bayer Diagnostics; Emeryville. Calif.). At the end of the assay, the luminescence was quantitated in Dynex MLX microtiter plate luminometer. EC50's were determined by non-linear regression with a sigmoidal fit utilizing Graphpad Prism.

PPARδ = target: T2, PPARδ (Homo sapiens, UniProt Q03181); assay: Transfection Assay for PPARδ Receptors (PPAR-Gal4 / Gal4-Luciferase reporter in HEK293 cells); type: cell-based; details: for PPARδ FI: fold induction, PPARδ standard: FI = 36.1
T2 construct: a Gal4-Luciferase reporter is co-transfected
T2 sequence (Q03181 171-441 limits assumed): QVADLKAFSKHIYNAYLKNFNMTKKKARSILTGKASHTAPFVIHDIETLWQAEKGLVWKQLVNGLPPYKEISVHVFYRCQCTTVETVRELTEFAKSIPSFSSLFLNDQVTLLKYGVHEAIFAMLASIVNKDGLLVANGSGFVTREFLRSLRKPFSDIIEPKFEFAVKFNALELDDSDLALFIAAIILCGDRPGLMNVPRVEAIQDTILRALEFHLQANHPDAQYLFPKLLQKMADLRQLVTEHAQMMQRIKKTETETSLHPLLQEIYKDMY
Experimental: Transfection Assay for PPARδ Receptors
HEK293 cells were grown in DMEM/F-12 Media supplemented with 10% FBS and glutamine (GIBCOBRL). The cells were co-transfected with DNA for PPAR-Gal4 receptor and Gal4-Luciferase Reporter using the DMRIE-C Reagent. On the following day, the DNA-containing medium were replaced with 5% Charcoal treated FBS growth medium. After six hours, cells were seeded in 96 well plate and incubated at 37° C. in CO2 incubator overnight. Cells were challenged by test compounds and incubated for 24 hours at 37° C. in 5% CO2 incubator. Luciferase activity was assayed using the Steady-Glo Luciferase Assay Kit from Promega. DMRIE-C Reagent was purchased from GIBCO Cat. No.10459-014. OPTI-MEM I Reduced Serum Medium was purchased from GIBCO Cat. No. 31985. Steady-Glo Luciferase Assay Kit was obtained from Promega Part# E254B.

db/db mice = assay: Oral dosing in female db/db mice; type: in vivo; details: Mus musculus, 240 h, 1.0 mpk, 10 day oral dosing, % change compared to vehicle
Experimental: The compound was prepared as suspensions in 0.5% hydroxypropylmethylcellulose (Dow Chemical, Midland, Mich.). The dosing volume was 10 mL/kg of body weight. […] Body weight was measured in the mornings on Day 1, prior to dosing, and on Day 12 before bleeding. 18-24 hours after the final dose for each group, the mice were anesthetized with CO2/O2 (70:30) and bled by retro-orbital sinus puncture into micro-tubes containing clog activator and then put in ice. The serum samples were prepared by centrifugation. Serum glucose and triglycerides were determined by using COBAS Mira Plus blood chemistry analyzer (Roche Diagnostics, N.J.). Serum insulin was measured by using ALPCO insulin ELISA kit.
Statistical analysis was performed using the program Prism (Graphpad, Monrovia, Calif.) and performing one-way ANOVA with a Dunnet's multiple comparison test.

[1] = in section F, target not named there, values match the PPARα column, read-out: EC50
[2] = H4IIE rat hepatoma cells, 24 hours, read-out: PPARα EC50

Row | Structure (SMILES) | EC50 (PPARα; [2]) [nM] | further results
1 | CCN(C(=O)Nc1ccc(OC(F)(F)F)cc1)C1CCc2cc(SC(C)(C)C(=O)O)c(Cl)cc2C1 (centres unmarked) [Example 51, 2-{6-[1-Ethyl-3-(4-trifluoromethoxyphenyl)ureido]-3-chloro-5,6,7,8-tetrahydronaphthalen-2-ylsulfanyl}-2-methylpropionic acid] |  | EC50 (PPARα; [1]): 27 nM; EC50 (PPARδ; values in square brackets): > 10 µM
2 | CCCCN(C(=O)Nc1ccc(SC(F)(F)F)cc1)C1CCc2cc(SC(C)(C)C(=O)O)ccc2C1 (centres unmarked) [Example 23, 2-{6-[1-Butyl-3-(4-trifluoromethylsulfanylphenyl)ureido]-5,6,7,8-tetrahydronaphthalen-2-ylsulfanyl}-2-methylpropionic acid] |  | EC50 (PPARα; [1]): 244 nM
3 | CC(C)(Sc1ccc2c(c1)CC(N(CCCC1CCCC1)C(=O)Nc1ccccc1)C2)C(=O)O (centres unmarked) [Example 37, 2-{2-[1-(3-Cyclopentylpropyl)-3-phenylureido]indan-5-ylsulfanyl}-2-methylpropionic acid] | 838 | PPARδ FI (PPARδ): 1.9
4 | C=CCCCN(C(=O)Nc1ccc(OC(F)(F)F)cc1)C1Cc2ccc(SC(C)(C)C(=O)O)cc2C1 (centres unmarked) [Example 19, 2-Methy-2-{2-[1-pent-4-enyl-3-(4-trifluoromethoxyphenyl)ureido]indan-5-ylsulfanyl}propionic acid] |  | EC50 (PPARα; [1]): 125 nM; PPARδ FI (PPARδ): 1.4
5 | CN(C)CCN(C(=O)Nc1ccc(SC(F)(F)F)cc1)C1Cc2ccc(SC(C)(C)C(=O)O)cc2C1 (centres unmarked) [Example 43, 2-{2-[1-(2-Dimethylaminoethyl)-3-(4-trifluoromethylsulfanylphenyl)ureido]indan-5-ylsulfanyl}-2-methylpropionic acid] | 2990 | 
6 | COC(=O)CCCCCN(C(=O)Nc1ccc(C(C)C)cc1)C1Cc2ccc(SC(C)(C)C(=O)O)cc2C1 (centres unmarked) [Example 38, 6-[1-[5-(1-Carboxy-1-methylethylsulfanyl)indan-2-yl]-3-(4-isopropylphenyl)-ureido]hexanoic acid methyl ester] | 950 | 
7 | CCCN(C(=O)Nc1ccc(C(F)(F)F)cc1)C1Cc2ccc(SC(C)(C)C(=O)O)cc2C1 (centres unmarked) [Example 35, 2-Methyl-2-{2-[1-propyl-3-(4-trifluoromethylphenyl)ureido]indan-5-ylsulfanyl}-propionic acid] | 772 | PPARδ FI (PPARδ): 5.6
8 | CC(C)(Sc1ccc2c(c1)CC(N(Cc1cccc3ccccc13)C(=O)Nc1ccc(OC(F)(F)F)cc1)C2)C(=O)O (centres unmarked) [Example 31, 2-Methyl-2-{2-[1-naphthalen-1 ylmethyl-3-(4-trifuoromethoxyphenyl)-ureido]indan-5-ylsulfanyl}-propionic acid] | 497 | 
9 | CCCCCCCN(C(=O)Nc1ccc(OC(F)(F)F)cc1)C1Cc2ccc(SC3(C(=O)O)CCC3)cc2C1 (centres unmarked) [Example 45, 1-{2-[1-Heptyl-3-(4-trifluoromethoxyphenyl)ureido]indan-5-ylsulfanyl}-cyclobutanecarboxylic acid] | 780 | 
10 | CN(C)c1ccc(NC(=O)N(C)C2Cc3ccc(SC(C)(C)C(=O)O)cc3C2)cc1 (centres unmarked) [Example 27, 2-{2-[3-(4-Dimethylaminophenyl)-1-methylureido]indan-5-ylsulfanyl}-2-methylpropionic acid] | 294 | 
11 | CC(C)(Sc1ccc2c(c1)CC(N(CCCC(F)(F)F)C(=O)Nc1ccc(OC(F)(F)F)cc1)C2)C(=O)O (centres unmarked) [Example 36, 2-Methyl-2-{2-[1-(4,4,4-trifluorobutyl)-3-(4-trifluoromethoxyphenyl)ureido]indan-5-ylsulfanyl}propionic acid] | 796 | 
12 | CCCCN(C(=O)Nc1ccc(OC(F)(F)F)cc1)C1CCc2cc(SC(C)(C)C(=O)O)ccc2C1 (centres unmarked) [Example 22, 2-{6-[1-Butyl-3-(4-trifluoromethoxyphenyl)ureido]-5,6,7,8-tetrahydronaphthalen-2-ylsulfanyl}-2-methylpropionic acid] |  | EC50 (PPARα; [1]): 219 nM
13 | CCCCCN(C(=O)Nc1ccc2c(c1)CCC2)C1Cc2ccc(SC(C)(C)C(=O)O)cc2C1 (centres unmarked) [Example 29, 2-[2-(3-Indan-5-yl-1-pentylureido)indan-5-ylsulfanyl}-2-methylpropionic acid] | 382 | 
14 | CCCCCCCN(C(=O)Nc1ccc(Cl)c(Cl)c1)C1Cc2ccc(SC(C)(C)C(=O)O)cc2C1 (centres unmarked) [Example 42, 2-{2-[3-(3,4-Dichlorophenyl)-1-heptylureido]indan-5-ylsulfanyl}-2-methylpropionic acid] | 2340 | 
15 | COCCN(C(=O)Nc1ccc(SC(F)(F)F)cc1)C1Cc2ccc(SC(C)(C)C(=O)O)cc2C1 (centres unmarked) [Example 34, 2-{2-[1-(2-Methoxyethyl)-3-(4-trifluoromethylsulfanylphenyl)ureido]indan-5-ylsulfanyl}-2-methylpropionic acid] | 657 | 
16 | CCN(C(=O)Nc1ccc(OC(F)(F)F)cc1)C1CCc2cc(SC(C)(C)C(=O)O)ccc2C1 (centres unmarked) [Example 1, 2-{6-[1-Ethyl-3-(4-trifluoromethoxyphenyl)ureido]-5,6,7,8-tetrahydronaphthalen-2-ylsulfanyl}-2-methylpropionic acid] |  | EC50 (PPARα; [1]): 23 nM; change in vivo at 1 mg/kg (db/db mice; read-out: Δ BW): -12%; change in vivo at 1 mg/kg (db/db mice; read-out: Δ Plasma Glucose): -73%; change in vivo at 1 mg/kg (db/db mice; read-out: Δ Plasma Insulin): -46%; change in vivo at 1 mg/kg (db/db mice; read-out: Δ Plasma TG): -52%
17 | CCCCCN(C(=O)Nc1ccc(C)c([N+](=O)[O-])c1)C1Cc2ccc(SC(C)(C)C(=O)O)cc2C1 (centres unmarked) [Example 30, 2-Methyl-2-{2-[3-(4-methyl-3-nitrophenyl)-1-pentylureido]indan-5-ylsulfanyl} propionic acid] | 385 | 
18 | CC(C)(Sc1ccc2c(c1)CC(N(CC1CCCCC1)C(=O)Nc1ccc(OC(F)(F)F)cc1)C2)C(=O)O (centres unmarked) [Example 40, 2-{2-[1-Cyclohexylmethyl-3-(4-trifluoromethoxyphenyl)ureido]indan-5-ylsulfanyl]-2-methylpropionic acid] | 1300 | 
19 | CCCCCCN(C(=O)Nc1ccc(OC(F)(F)F)cc1)C1CCc2cc(SC(C)(C)C(=O)O)ccc2C1 (centres unmarked) [Example 24, 2-{6-[1-Hexyl-3-(4-trifluoromethoxyphenyl)ureido]-5,6,7,8-tetrahydronaphthalen-2-ylsulfanyl}-2-methylpropionic acid] |  | EC50 (PPARα; [1]): 235 nM
20 | CCCCCCCN(C(=O)Nc1cccc(Cl)c1)C1Cc2ccc(SC(C)(C)C(=O)O)cc2C1 (centres unmarked) [Example 44, 2-{2-[3-(3-Chlorophenyl)-1-heptylureido]indan-5-ylsulfanyl}-2-methylpropionic acid] | 2090 | 
21 | CC(C)CN(C(=O)Nc1ccc(OC(F)(F)F)cc1)C1Cc2ccc(SC(C)(C)C(=O)O)cc2C1 (centres unmarked) [Example 41, 2-{2-[1-Isobutyl-3-(4-trifluoromethoxyphenyl)ureido]indan-5-ylsulfanyl}-2-methylpropionic acid] | 2210 | 
